{"source": "patent US7683034B2", "about": "“Use of enzyme inhibitors of aminopeptidase N and/or dipeptidylpeptidase IV” (IMTM GmbH, priority 2002, dated 2010)", "system": "immortalized human sebaceous cell line SZ95", "experiment": "Inhibition of DNA synthesis (3[H]-thymidine incorporation) of SZ95 sebaceous cells", "format": "cell-based", "conditions": "48 h incubation with inhibitor, then 6 h 3[H]-methyl-thymidine incorporation; dose-dependent (FIG. 3)", "experimental": "SZ95 cells were 48 h incubated with the above-mentioned inhibitors and subsequently the DNA synthesis was determined by the measurement of the ^ 3[H]-Thymidine incorporation as described in Reinhold et al. (Reinhold, D. et al.: Inhibitors of dipeptidyl peptidase IV induce secretion of transforming growth factor β1 in PWM-stimulated PBMNC and T-cells; Immunology, 1997, 91; 354-360).\nThe cells were 48 h incubated with inhibitors in the above-mentioned concentrations. Subsequently ^3[H]-Methyl-thymidin was added to the culture medium. After 6 further hours the amount of ^3[H]-Thymidine incorporated in the DNA was measured."}
{"smiles": "N[C@@H](CCCCNC(=O)OCc1ccc([N+](=O)[O-])cc1)C(=O)N1CCSC1", "note": "[Lys[Z(NO2)]-thiazolidide]", "values": [{"measurement": "DNA synthesis of the immortalized human sebaceous cell line SZ95", "value": "inhibited"}]}
{"smiles": "CCCCC[C@H](CC(=O)NO)C(=O)N[C@H](C(=O)N1CCC[C@H]1CO)C(C)C", "note": "[actinonin]", "values": [{"measurement": "DNA synthesis of the immortalized human sebaceous cell line SZ95", "value": "inhibited"}]}
